ChEMBL document CHEMBL3507680, “University of Dundee, Gates Library screen for HepG2 cell viability”

Assay: Human HepG2 cell viability assay in 384 well format
Assay type: toxicity, cell-based
Design: dose 125 nL, time 70.5 hour; cytotoxicity at 70.5 h: concentration not given beside the values
Settings: HepG2 cells, read-out: Inhibition

Row | SMILES | cytotoxicity at 70.5 h [%]
1 | O=C(c1ccc2nccn2c1)N(CCO)Cc1ccccc1F | 3.35
2 | COCCCN1CCC(CNc2nccc(-c3cnn(C)c3)n2)C1 (stereo not given) | -6.55
3 | CCOCc1nc2c(c(N3CC=CC3)n1)CCN(CC1CC1)CC2 | 9.81
4 | Cc1ccc2oc(CN3CCn4nc(CCC(=O)O)cc4C3)c(C)c2c1 | 32
5 | COc1cccc2c1OCC(C(=O)NCCc1nnc(N)s1)C2 (stereo not given) | -5.75
6 | CCc1cc(N2CCC(N3CCSCC3)CC2)n2nccc2n1 | -7.5
7 | CCc1ccc(CCNc2ncnc3c2CCN(C(=O)C2CC2)C3)cc1 | 7.48
8 | Cc1cnc(C)c(N2C[C@H]3OC(=O)N(C4CCCC4)[C@H]3C2)n1 | -6.45
9 | CCCN1CCN(S(=O)(=O)c2ccccc2OC)[C@H]2CS(=O)(=O)C[C@H]21 | -16.5
10 | CN(C)CCNC(=O)c1ccc(S(=O)(=O)N[C@@H]2CCNC2)cc1 | -13.7
11 | CC(C)Cc1nc(CN2CCC3(CCCO3)CCC2=O)no1 (stereo not given) | 0.922
12 | COc1ccccc1OC1CCN(C(=O)c2cccc(O)c2C)CC1 | -4.78
13 | CCC(CC)CN(C)Cc1nc(-c2ccccc2NS(C)(=O)=O)oc1C | -5.33
14 | CC(CCn1cccn1)N1CCC(n2cc(C(C)(C)N)nn2)CC1 (stereo not given) | 1.2
15 | COCCN1CCN(c2nc(C3CCCC3)nc3c2cnn3C)CC1 | -16.1
16 | O=C1NCCCC12CCN(S(=O)(=O)N1CCOCC1)C2 (stereo not given) | -6.49
17 | CN(C)Cc1ccccc1CN(C)C(=O)c1ccoc1 | -8.04
18 | Cc1ccc(N2CCN(C3CCc4ccccc4C3)CC2)nn1 (stereo not given) | -8.25
19 | Cc1nn(C)c2ncnc(N3CCCC(OCc4cccnc4)C3)c12 (stereo not given) | -3.45
20 | CCc1cnc(C)nc1NCc1cnc2c(c1)CCC2 | -9.06
21 | CC(C)c1cc(NCC2(Cn3cccn3)CC2)n2nccc2n1 | 5.08
22 | CCS(=O)(=O)c1ncc(CN2CCN(C)CC2)n1CCc1ccccc1 | -3.88
23 | CCC(c1nc(CC(C)C)nn1-c1ccccn1)n1cccn1 (stereo not given) | -12.3

Row | SMILES | cytotoxicity at 70.5 h [%]
24 | CC(=O)c1cc(CC(=O)NCc2cccc(F)c2F)cs1 | -8.12
25 | Cc1nc(N(C)C)nc(N(C)Cc2cnccn2)c1C | -9.41
26 | Cn1c(CN2CCCC2)nnc1C1CCCN(C(=O)N2CCOCC2)C1 (stereo not given) | -3.17
27 | CCS(=O)(=O)N1CCC(c2nccn2Cc2ccccn2)CC1 | -5.3
28 | CC(C)NS(=O)(=O)c1cc(C(=O)O)cc(-c2ccccc2C#N)c1 | 6.18
29 | Cc1ccc(C)c2c(O)cc(CN[C@H]3CCCCNC3=O)nc12 | -6.91
30 | O=C(NC1CC(=O)N(C2Cc3ccccc3C2)C1)c1ccoc1 (stereo not given) | -2.92
31 | CC(C)OC(=O)N1CCCCC1CCn1cccn1 (stereo not given) | -7.8
32 | CCc1nc(NC(=O)NCCc2scnc2C)nn1C | 16.5
33 | Cc1cc(C)n(C2CCN(Cc3c(-c4cc(C)on4)nn(C)c3Cl)C2)n1 (stereo not given) | -6.11
34 | Cc1cccn2c(CC(=O)N3CCC(Oc4ncccn4)CC3)cnc12 | 25.3
35 | CCc1[nH]c2c(CNc3cncc(C(=O)OC)n3)cc(C)cc2c1C | 20.4
36 | CCc1ncc(C(=O)N2CC(N3CCCCC3)C2)cn1 | 25.6
37 | CC(C)(O)CCc1cccc(C(=O)NCC2COCCO2)c1 (stereo not given) | -1.78
38 | C=C(C)COc1ccc(C(=O)NCCn2c(C)cc(C)nc2=O)cc1 | -6.24
39 | CCN1CCN(S(=O)(=O)N2CCCC2)[C@H]2CS(=O)(=O)C[C@H]21 | -3.04
40 | Cc1cccc2cc(CN3CCC(N4CCOCC4)CC3)c(=O)[nH]c12 | -5.31
41 | CCN(CC)C(=O)[C@@H]1C[C@@H](n2cc(-c3ccccn3)nn2)CN1 | -3.65
42 | O=S(=O)(c1c(Cl)nc2sccn12)N1CCCC2(CCNC2)C1 (stereo not given) | -7.18
43 | CCOCC(=O)N1CCC(c2nccn2C)CC1 | 2.76
44 | Cc1cc(C(=O)N2CC[C@H](N3CCOCC3)[C@H](CCCO)C2)c(C)n1C | -16.1
45 | CC[C@H]1COCCN1C(=O)CCCn1nnc(-c2ccc(F)cc2)n1 | -1.69
